Laboratory results reported in ChEMBL document CHEMBL1134711, “Pharmacophore-based discovery of 3,4-disubstituted pyrrolidines as a novel class of monoamine transporter inhibitors” (Bioorg Med Chem Lett, 2001).

Columns and labels:
[1] = target: T1, Sodium-dependent dopamine transporter (Rattus norvegicus, UniProt P23977); assay: Inhibition of [3H]DA uptake at Dopamine transporter in rat cortex.
[2] = In vitro Ki against [3H]mazindol binding.
[3] = target: Sodium-dependent serotonin transporter (Rattus norvegicus, UniProt P31652); assay: Inhibition of [3H]5-HT uptake at Serotonin transporter in rat mid brain
Sequence of Sodium-dependent serotonin transporter (P31652 whole entry): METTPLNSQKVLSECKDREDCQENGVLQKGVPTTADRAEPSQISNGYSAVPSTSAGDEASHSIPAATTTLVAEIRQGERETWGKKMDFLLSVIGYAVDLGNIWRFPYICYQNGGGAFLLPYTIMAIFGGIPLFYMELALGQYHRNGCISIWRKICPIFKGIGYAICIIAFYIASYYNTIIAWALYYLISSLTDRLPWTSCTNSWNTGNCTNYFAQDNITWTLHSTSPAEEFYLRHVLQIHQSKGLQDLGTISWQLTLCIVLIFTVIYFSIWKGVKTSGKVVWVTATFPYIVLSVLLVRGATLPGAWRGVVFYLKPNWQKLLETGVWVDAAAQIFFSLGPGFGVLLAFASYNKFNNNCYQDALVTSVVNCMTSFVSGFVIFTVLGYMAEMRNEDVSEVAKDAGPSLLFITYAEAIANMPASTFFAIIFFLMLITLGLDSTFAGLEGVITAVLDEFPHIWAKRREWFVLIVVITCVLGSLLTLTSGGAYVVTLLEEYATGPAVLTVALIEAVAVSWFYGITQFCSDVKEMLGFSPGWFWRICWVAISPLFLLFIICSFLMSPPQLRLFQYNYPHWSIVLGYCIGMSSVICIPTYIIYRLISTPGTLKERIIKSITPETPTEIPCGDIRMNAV

[4] = target: Norepinephrine transporter (Rattus norvegicus, UniProt Q9WTR4); assay: Inhibition of [3H]NE uptake at Norepinephrine transporter in rat parietal/occipital cortex was determined
Sequence of Norepinephrine transporter (Q9WTR4 whole entry): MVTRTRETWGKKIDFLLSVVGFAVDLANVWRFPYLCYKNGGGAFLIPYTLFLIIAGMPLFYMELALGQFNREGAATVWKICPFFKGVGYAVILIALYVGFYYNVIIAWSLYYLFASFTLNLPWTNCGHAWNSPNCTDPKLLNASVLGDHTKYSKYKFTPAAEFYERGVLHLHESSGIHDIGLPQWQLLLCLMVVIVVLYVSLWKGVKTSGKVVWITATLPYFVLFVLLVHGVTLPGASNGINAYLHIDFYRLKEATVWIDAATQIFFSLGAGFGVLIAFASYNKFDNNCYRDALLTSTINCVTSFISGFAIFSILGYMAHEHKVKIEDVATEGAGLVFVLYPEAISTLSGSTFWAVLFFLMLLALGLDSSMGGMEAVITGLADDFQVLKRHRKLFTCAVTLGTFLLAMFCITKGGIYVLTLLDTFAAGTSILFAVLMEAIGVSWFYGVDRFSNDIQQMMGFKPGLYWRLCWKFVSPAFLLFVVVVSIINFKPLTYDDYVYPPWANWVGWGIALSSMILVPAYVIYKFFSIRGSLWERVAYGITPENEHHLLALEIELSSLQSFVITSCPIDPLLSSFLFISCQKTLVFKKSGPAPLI

[5] = target: T1, Sodium-dependent dopamine transporter; assay: Functional cocaine antagonism was evaluated by inhibition of [3H]dopamine reuptake at a concentration of 300 nM with cocaine
[6] = target: T1, Sodium-dependent dopamine transporter; assay: Functional cocaine antagonism was evaluated by inhibition of [3H]dopamine reuptake at a concentration of 100 nM with cocaine
[7] = target: T1, Sodium-dependent dopamine transporter; assay: Functional cocaine antagonism was evaluated by inhibition of [3H]dopamine reuptake
[8] = target: T1, Sodium-dependent dopamine transporter; assay: Functional cocaine antagonism was evaluated by inhibition of [3H]dopamine reuptake at a concentration of 30 nM with cocaine

T1 sequence (P23977 whole entry): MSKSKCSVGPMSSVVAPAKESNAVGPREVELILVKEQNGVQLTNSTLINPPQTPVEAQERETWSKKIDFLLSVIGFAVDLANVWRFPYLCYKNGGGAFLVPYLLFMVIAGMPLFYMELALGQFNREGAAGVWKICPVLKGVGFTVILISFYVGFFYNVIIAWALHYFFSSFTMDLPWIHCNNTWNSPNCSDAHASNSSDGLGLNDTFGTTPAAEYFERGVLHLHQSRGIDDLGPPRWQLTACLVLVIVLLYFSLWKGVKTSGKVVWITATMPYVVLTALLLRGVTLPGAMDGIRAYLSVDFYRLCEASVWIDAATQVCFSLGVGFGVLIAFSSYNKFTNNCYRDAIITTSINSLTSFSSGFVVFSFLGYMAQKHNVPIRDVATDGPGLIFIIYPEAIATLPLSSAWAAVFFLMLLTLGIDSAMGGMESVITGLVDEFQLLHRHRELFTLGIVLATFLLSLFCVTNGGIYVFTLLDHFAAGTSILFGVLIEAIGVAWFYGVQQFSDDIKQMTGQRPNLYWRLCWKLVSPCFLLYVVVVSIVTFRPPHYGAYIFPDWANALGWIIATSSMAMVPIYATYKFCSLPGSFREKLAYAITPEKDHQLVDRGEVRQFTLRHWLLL

SMILES | Ki [1] | Ki [2] | Ki [3] | Ki [4] | also measured
CN1C[C@@H](C(=O)c2cccc(C(F)(F)F)c2)[C@H](c2ccc(Cl)cc2)C1 | 3170 nM | – | – | – | –
CN1C[C@@H](C(=O)c2ccc(Cl)cc2)[C@H](c2ccccc2F)C1 | 1280 nM | – | – | – | –
CN1C[C@@H](C(=O)c2ccccc2Cl)[C@H](c2ccc(Cl)cc2)C1 | 610 nM | 340 nM | 540 nM | 69 nM | –
COc1ccccc1C(=O)[C@@H]1CN(c2ccccc2)C[C@H]1c1ccc(Cl)cc1 | > 10000 nM | – | – | – | –
O=C(c1ccccc1)[C@@H]1CN(c2ccccc2)C[C@H]1c1ccc(Cl)cc1 | > 10000 nM | – | – | – | –
O=C(c1cccs1)[C@@H]1CN(c2ccccc2)C[C@H]1c1ccccc1 | > 10000 nM | > 10000 nM | > 10000 nM | > 10000 nM | –
Cc1ccc([C@@H]2CN(c3ccccc3)C[C@H]2C(=O)c2ccc(F)cc2)cc1 | > 10000 nM | – | – | – | –
CN1C[C@@H](C(=O)c2ccc(Cl)cc2)[C@H](c2ccc(Cl)cc2Cl)C1 | 1260 nM | – | – | – | –
CN1C[C@@H](C(=O)c2ccccc2)[C@H](c2ccccc2)C1 | 1410 nM | 1180 nM | 750 nM | 150 nM | –
CN1C[C@@H](C(=O)c2ccccn2)[C@H](c2ccccc2)C1 | 630 nM | 510 nM | 830 nM | – | IC50 [5]: 645 nM; IC50 [6]: 494 nM; IC50 [7]: 663 nM
COc1ccc(C(=O)[C@@H]2CN(C)C[C@H]2c2ccc(Cl)cc2)cc1 | 1160 nM | – | – | – | –
COC(=O)[C@@H]1C2CC[C@@H](C[C@@H]1OC(=O)c1ccccc1)N2C (single isomer, unassigned) [COCAINE] | – | 230 nM | – | – | –
Cc1ccc([C@@H]2CN(C)C[C@H]2C(=O)c2ccccc2F)cc1 | 1930 nM | – | – | – | –
CN1C[C@@H](C(=O)c2ccc(F)cc2)[C@H](c2ccc(F)cc2)C1 | 3960 nM | – | 380 nM | 800 nM | –
O=C(c1ccccn1)[C@@H]1CN(c2ccccc2)C[C@H]1c1ccccc1 | > 10000 nM | > 10000 nM | > 10000 nM | > 10000 nM | –
CN1C[C@@H](C(=O)c2cccs2)[C@H](c2ccc(Cl)cc2)C1 | 200 nM | 84 nM | 230 nM | 31 nM | IC50 [6]: 641 nM; IC50 [8]: 46 nM; IC50 [7]: 308 nM
CN1C[C@@H](C(=O)c2ccc(Cl)cc2)[C@H](c2ccccc2)C1 | 1220 nM | 1250 nM | 520 nM | 430 nM | –
